Measured values from the supplement of paper PMC12076712.

How the values were obtained:
AKT2 = AKT2 (UniProt P31751); experiment: pIC50, kinobeads binding competition; conditions: cell material: Jurkat lysate
CSK = CSK (UniProt P41240); experiment: pIC50, kinobeads binding competition; conditions: cell material: Jurkat lysate
EIF2AK4 = EIF2AK4 (UniProt Q9P2K8); experiment: pIC50, kinobeads binding competition; conditions: cell material: Jurkat lysate
HIPK3 = HIPK3 (UniProt Q9H422); experiment: pIC50, kinobeads binding competition; conditions: cell material: Jurkat lysate
JAK1 = JAK1 (UniProt P23458); experiment: pIC50, kinobeads binding competition; conditions: cell material: Jurkat lysate
KSR1 = target: T1, KSR1 (UniProt Q8IVT5); experiment: pIC50, kinobeads binding competition; conditions: cell material: Jurkat lysate
T1 sequence (whole entry): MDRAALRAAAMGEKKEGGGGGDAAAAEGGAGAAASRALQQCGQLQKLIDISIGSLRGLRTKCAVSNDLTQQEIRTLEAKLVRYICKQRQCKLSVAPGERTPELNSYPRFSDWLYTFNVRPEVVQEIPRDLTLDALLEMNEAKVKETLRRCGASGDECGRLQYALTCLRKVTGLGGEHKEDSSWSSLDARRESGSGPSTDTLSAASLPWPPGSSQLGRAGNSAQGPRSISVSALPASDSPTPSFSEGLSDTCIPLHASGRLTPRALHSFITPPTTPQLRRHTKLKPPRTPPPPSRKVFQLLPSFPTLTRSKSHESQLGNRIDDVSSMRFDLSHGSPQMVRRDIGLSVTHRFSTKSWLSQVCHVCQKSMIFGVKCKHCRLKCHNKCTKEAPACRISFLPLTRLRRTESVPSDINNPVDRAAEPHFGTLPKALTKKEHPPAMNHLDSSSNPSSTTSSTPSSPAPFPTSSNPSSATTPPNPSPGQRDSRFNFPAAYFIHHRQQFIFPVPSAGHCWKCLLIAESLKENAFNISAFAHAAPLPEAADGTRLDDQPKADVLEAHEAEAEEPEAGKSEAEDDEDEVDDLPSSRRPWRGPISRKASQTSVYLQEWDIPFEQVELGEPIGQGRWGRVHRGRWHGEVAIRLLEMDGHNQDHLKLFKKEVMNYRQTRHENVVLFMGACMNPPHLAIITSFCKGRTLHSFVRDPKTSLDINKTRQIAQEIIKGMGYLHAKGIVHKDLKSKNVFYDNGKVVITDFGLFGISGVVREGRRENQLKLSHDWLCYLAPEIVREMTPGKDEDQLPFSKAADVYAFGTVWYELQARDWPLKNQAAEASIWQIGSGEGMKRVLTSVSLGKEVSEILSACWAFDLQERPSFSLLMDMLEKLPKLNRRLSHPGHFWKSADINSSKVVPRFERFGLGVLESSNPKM

RIPK3 = RIPK3 (UniProt Q9Y572); experiment: pIC50, kinobeads binding competition; conditions: cell material: Jurkat lysate
ABCC1 = ABCC1 (UniProt P33527); experiment: pIC50, competition of probe 3 labelling in live cells; conditions: cell material: Jurkat cells
SGK3 = target: T2, SGK3 (UniProt Q96BR1); experiment: as above; conditions: cell material: Jurkat cells
T2 sequence (whole entry): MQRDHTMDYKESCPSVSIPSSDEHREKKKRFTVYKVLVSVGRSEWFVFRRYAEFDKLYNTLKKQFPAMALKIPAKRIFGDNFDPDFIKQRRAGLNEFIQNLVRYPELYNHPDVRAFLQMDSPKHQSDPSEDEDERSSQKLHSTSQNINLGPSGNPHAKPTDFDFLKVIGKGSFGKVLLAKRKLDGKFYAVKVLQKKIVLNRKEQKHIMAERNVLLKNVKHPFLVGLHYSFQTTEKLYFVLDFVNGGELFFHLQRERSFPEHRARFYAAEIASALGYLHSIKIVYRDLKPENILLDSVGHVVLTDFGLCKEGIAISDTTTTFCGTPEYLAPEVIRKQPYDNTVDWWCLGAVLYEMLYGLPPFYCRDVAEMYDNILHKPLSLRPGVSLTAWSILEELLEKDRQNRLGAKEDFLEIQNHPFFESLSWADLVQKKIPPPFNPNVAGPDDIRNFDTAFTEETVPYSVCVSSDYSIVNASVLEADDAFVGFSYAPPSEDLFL

UniProt P19784 = experiment: as above; conditions: cell material: Jurkat cells
UniProt P27361 = experiment: as above; conditions: cell material: Jurkat cells
UniProt Q13188 = target: T3, UniProt Q13188; experiment: as above; conditions: cell material: Jurkat cells
T3 sequence (whole entry): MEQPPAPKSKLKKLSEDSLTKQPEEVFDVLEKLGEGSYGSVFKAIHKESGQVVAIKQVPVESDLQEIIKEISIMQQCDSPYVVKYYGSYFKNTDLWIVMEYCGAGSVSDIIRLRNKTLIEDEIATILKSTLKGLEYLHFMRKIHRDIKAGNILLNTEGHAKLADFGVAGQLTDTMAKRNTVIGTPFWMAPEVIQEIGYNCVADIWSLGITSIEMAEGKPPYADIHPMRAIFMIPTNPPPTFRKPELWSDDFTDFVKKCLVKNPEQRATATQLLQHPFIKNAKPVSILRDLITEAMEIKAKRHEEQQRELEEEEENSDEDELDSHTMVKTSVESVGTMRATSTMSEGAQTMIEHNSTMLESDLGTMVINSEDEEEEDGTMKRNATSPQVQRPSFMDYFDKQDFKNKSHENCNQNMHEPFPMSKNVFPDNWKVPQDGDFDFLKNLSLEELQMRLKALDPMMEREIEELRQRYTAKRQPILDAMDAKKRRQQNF

UniProt P45983 = experiment: as above; conditions: cell material: Jurkat cells
UniProt P51812 = experiment: as above; conditions: cell material: Jurkat cells

Row | pIC50 (AKT2) | pIC50 (CSK) | pIC50 (EIF2AK4) | pIC50 (HIPK3) | pIC50 (JAK1) | pIC50 (KSR1) | pIC50 (RIPK3) | pIC50 (ABCC1) | pIC50 (SGK3) | pIC50 (UniProt P19784) | pIC50 (UniProt P27361) | pIC50 (UniProt Q13188) | pIC50 (UniProt P45983) | pIC50 (UniProt P51812) | Compound
1 | < 4.52 | < 4.52 | < 4.52 | < 4.52 | < 4.52 | < 4.52 | < 4.52 | < 4.52 | < 4.52 | < 4.52 | < 4.52 | < 4.52 | – | – | CCc1cnn2c(NCc3ccc[n+]([O-])c3)cc(N3CCCC[C@H]3CCO)nc12 [dinaciclib]
2 | – | – | – | – | – | – | – | – | – | – | – | – | < 4.52 | < 4.52 | CC#CC(=O)Nc1ccc2ncnc(Nc3cccc(Br)c3)c2c1 [EKI-785]
